# Data from publication PMC8777613, “Effect of Hydroxyl Groups Esterification with Fatty Acids on the Cytotoxicity and Antioxidant Activity of Flavones” (Molecules, 2022).
# Like-named read-outs stand apart in the source and are kept apart here.
# Assays:
# [1] = tested on: human prostate cancer cells (PC3); assay: MTT dye reduction viability test, PC3; assay type: cell-based; settings: for IC50 / viability at 10 µM / viability at 20 µM / viability at 40 µM / viability at 60 µM / viability at 80 µM / viability at 100 µM: Homo sapiens; for IC50: read-out: Cytotoxic activity IC50, PC3; for viability at 10 µM: PC3, 10 µM; for viability at 20 µM: PC3, 20 µM; for viability at 40 µM: PC3, 40 µM; for viability at 60 µM: PC3, 60 µM; for viability at 80 µM: PC3, 80 µM
# Procedure: (§1) We have chosen two types of cell culture lines: human prostate cancer cells (PC3) and normal human immortal keratinocyte cells (HaCaT) (Table 1).
# (§2) Human prostate cancer cells (PC3) and human immortal keratinocyte cell line from adult human skin (HaCaT) were obtained from American Type Culture Collection (Teddington, UK) and cultured according to its instructions RPMI 1640 (L0490) medium or DMEM (L0102) medium, respectively, in a 95% air and 5% CO2 humidified incubator at 37 °C. Both media (Biowest) were supplemented with 10% fetal bovine serum (FBS), 100 U/mL penicillin and 100 μg/mL streptomycin. 10 mM stock solutions of tested compounds in DMSO were prepared.
# (§3) To assess the cells growth inhibition, the MTT dye reduction test was preformed based on the method described by Präbst et al.. Both PC3 and HaCaT cells (1 × 10^3/well) were seeded into 96-well plates and incubated for 24 h to attach to the bottom of the well in appropriate medium (200 μL) and treated with tested compounds (0–100 μM). The medium with compounds was removed after 72 h and MTT (0.5 mg/mL) in fresh growth medium without serum was added to each well. The plates were incubated in dark for 4 h at 37 °C. Then, the solution in each well was removed and refilled with 100 μL DMSO: isopropanol (1:1) to dissolve formazon crystals. The optical density was measured with an UVM 340 (ASYS Hitech GmbH, Austria) microplate reader at 570 nm. Replicates of three wells for each dosage, including vehicle control, were analyzed for each experiment. The experiments were conducted in triplicate. The results are expressed as IC50 values. The value of IC50 was estimated using CompuSyn version 1.0.
# rat brain homogenate = assay: Lipid peroxidation (MDA/TBA) induced by FeCl2 and ascorbic acid; assay type: biochemical; settings: for MDA concentration: oxidation by 0.1% FeCl2 and 1 mM ascorbic acid, 1 h 37 °C, control 9.644 ± 1.570
# Procedure: The antioxidant potential of the new flavone derivatives was assessed based on the analysis of malondialdehyde concentration formed as a product of lipid oxidation stimulated by iron (II) ions.
# After preparation, the brain was placed on an ice plate and washed with cold 0.9% NaCl. 10% (m/v) brain solution was obtained by homogenization in cold 10 mM TRIS-HCl buffer, pH = 7.5. The homogenate was centrifuged (2000 rpm, 10 min, 4 °C) to obtain supernatant 1 (S1).
# 100 µM stock solutions of test compounds in DMSO were prepared. The test compound solution was added to a […] S1 homogenate to a final concentration of 10 µM.
# The oxidation reaction was induced by adding to the samples with or without the test compounds freshly prepared solutions: 0.1% FeCl2 (0.2 mL) and 1 mM ascorbic acid (0.4 mL). After incubation for 1 h at 37 °C, the reaction was stopped by adding 8.1% sodium dodecyl sulfate (SDS) solution. In order to determine the concentration of MDA, the acetic acid/HCl buffer at pH = 3.4 and 120 μL of 0.8% thiobarbituric acid (TBA) solution at pH = 6 were added to the samples. The samples were incubated for 1 h at 100 °C. After incubation, the samples were cooled on ice and centrifuged for 10 min at 4000 RPM. The absorbance was measured at a wavelength of 532 nm. Blank content: 0.5 mL of acetate buffer + 0.5 mL of TBA solution.
# Calculation of malondialdehyde (MDA) concentration (Equation (1)):(1) MDA concentration=∆ A532 nm × 1.56 ×10^−6 [nmol MDA/h/g tissue]
# [2] = MTT dye reduction viability test, HaCaT; assay type: cell-based, human; settings: human; for viability at 72 h, 10 µM / viability at 72 h, 20 µM / viability at 72 h, 40 µM / viability at 72 h, 60 µM / viability at 72 h, 80 µM / viability at 72 h, 100 µM: HaCaT
# Procedure: as §1, §2, §3
# [3] = 72 h, representative MTT result (Table S1 A)
# [4] = PC3, 100 µM, 72 h, representative MTT result (Table S1 A), read-out: Cells viability
# [5] = HaCaT cells (immortal keratinocytes), 72 h exposure, MTT, mean ± SD, read-out: Cytotoxic activity IC50, HaCaT
# [6] = HaCaT cells (immortal keratinocytes), 72 h, representative MTT result (Table S1 B)
# [7] = HaCaT cells (immortal keratinocytes), 100 µM, 72 h, representative MTT result (Table S1 B), read-out: Cells viability
Compound,"IC50 ([1]; 72 h exposure, MTT, mean ± SD)","viability at 10 µM [1, 3]","viability at 20 µM [1, 3]","viability at 40 µM [1, 3]","viability at 60 µM [1, 3]","viability at 80 µM [1, 3]","viability at 100 µM [1, 4]",MDA concentration (rat brain homogenate; 10 µM compound),"IC50 at 72 h [2, 5]","viability at 72 h, 10 µM [2, 6]","viability at 72 h, 20 µM [2, 6]","viability at 72 h, 40 µM [2, 6]","viability at 72 h, 60 µM [2, 6]","viability at 72 h, 80 µM [2, 6]","viability at 72 h, 100 µM [2, 7]",also measured
"O=C1CC(c2ccccc2)Oc2ccc(O)cc21 (stereo not shown) [6-Hydroxy-Flavanone, 6-hydroxy-flavanone, reference compound]",> 100 µM,96.4%,96%,96%,96.7%,96.4%,96.8%,7.077 ± 1.815 mM × 10^−3,> 100 µM,99.7%,115%,113%,104%,72.2%,74.4%,"viability at 100 µM ([1]; PC3, 100 μM, 72 h incubation, read-out: cells viability compared to control cells): 89%; reduction of the level of MDA compared to the control sample (rat brain homogenate; 10 µM compound, rat brain homogenate): 26.62%; viability at 72 h, 100 µM ([2]; HaCaT cells (immortal keratinocytes), 100 μM, 72 h incubation, read-out: cells viability compared to control cells): 73%"
"CCCCCC=CCC=CCCCCCCCC(=O)Oc1ccc2c(c1)C(=O)CC(c1ccccc1)O2 (stereo not shown) [6-Linoleic-Flavanone, 6-hydroxy-flavanone linoleic ester]",48.3 ± 8.73 µM,94.7%,76.5%,53.3%,45.4%,31.2%,20.2%,–,80 ± 4.75 µM,95.7%,93.8%,86.8%,73.4%,50.3%,34.9%,–
"CC=CC=CC(=O)Oc1ccc2c(c1)C(=O)CC(c1ccccc1)O2 (stereo not shown) [6-Sorbic-Flavanone, 6-hydroxy-flavanone sorbic ester]",54.7 ± 5.25 µM,95.6%,88.7%,82.1%,41.3%,28.7%,32.6%,6.938 ± 0.392 mM × 10^−3,79.8 ± 2.21 µM,98.7%,96.7%,89.6%,75.7%,56.7%,31.4%,antioxidant potential compared to the original compound (in words) (rat brain homogenate; MDA in rat brain homogenate): slight increase in antioxidant potential; melting point: 129.4 to 130.8 °C
"CCCCCC=CCC=CCCCCCCCC(=O)Oc1ccc2c(=O)cc(-c3ccccc3)oc2c1 [7-Linoleic-Flavone, 7-hydroxy-flavone linoleic ester]",41.2 ± 2.3 µM,84.6%,70.4%,46.7%,35.9%,34.3%,39.5%,8.010 ± 0.008 mM × 10^−3,65 ± 4.12 µM,88.4%,73.2%,74.5%,57%,44.6%,34%,–
"CCC=CCC=CCC=CCCCCCCCC(=O)Oc1ccc2c(=O)cc(-c3ccccc3)oc2c1 [7-Linolenic-Flavone, 7-hydroxy-flavone linolenic ester]",> 100 µM,90.2%,86.3%,81.7%,79.4%,86.8%,86.7%,–,45.4 ± 9.2 µM,106%,90.5%,66%,19.4%,15.8%,14.6%,"cytotoxic potential in PC3 cells (in words) ([1]; PC3, 0–100 μM, 72 h): no cytotoxic potential"
"CCCCCCCCC=CCCCCCCCC(=O)Oc1ccc2c(=O)cc(-c3ccccc3)oc2c1 [7-Oleic-Flavone, 7-hydroxy-flavone oleic ester]",39.3 ± 2.11 µM,92.2%,80.8%,48.2%,41%,42.2%,38.9%,8.465 ± 0.834 mM × 10^−3,44.9 ± 6.44 µM,95.3%,79.3%,51.9%,39.9%,38.7%,44.9%,melting point: 73.3 to 74.5 °C
"O=c1cc(-c2ccccc2)oc2ccc(O)cc12 [Compound 13, 6-Hydroxy-Flavone, reference compound]",–,89.4%,87.8%,99%,110%,87%,73.2%,–,–,96.4%,83.8%,77.9%,95.1%,84.9%,87.8%,–
"COc1cccc2c1C(=O)c1c(O)c3c(c(O)c1C2=O)C[C@@](O)(C(=O)CO)C[C@@H]3O[C@H]1C[C@H](N)[C@H](O)[C@H](C)O1 [doxorubicin, reference compound]",–,–,–,–,–,–,–,–,–,–,–,–,–,–,–,"IC50 ([1]; 72 h): 0.29 µM; IC50 at 72 h ([2]; Cytotoxic activity IC50, HaCaT): 0.31 µM"
